Assay results reported in paper PMC10783497 (2023).
Blank lines part the entries; values can stand above or below the molecule they belong to.

Assays:
[1] = system: Malachite green (MG) aptamer (RNA, aptamer) GGAUCCCGACUGGCGAGAGCCAGGUAACGAAUGGAUCC; assay: fluorescence spectrum; settings: 100 mM KCl, 5 mM MgCl2; 10 mM HEPES, pH 7.4; 1 μM CV; also in 2 M CDHP
[2] = system: PS2.M (DNA, G4) GTGGGTAGGGCGGGTTGG; assay: ligand fluorescence titration; settings: 100 mM KCl; 10 mM Tris-HCl, pH 7.6; no CDHP
[3] = system: ATP aptamer (DNA, aptamer) AATTCTGGGGGAGCCTTTTGTGGGTAGGGCGGGTTGGTTTTGCCCCGGAGGAGGAATT; assay: structure-switching FAM/BHQ1 fluorescence quenching; settings: 300 mM NaCl, 5 mM MgCl2, 20 mM Tris-HCl, pH 7.4; for binding: 2 M CDHP, AD-13 hybridized, 1 mM nucleotide tested
[4] = system: Scrambled MG aptamer (RNA, other) ACCGUUGCCGGACGAGACUGAUACGCGGAAGUCGCAAG; assay: fluorescence spectrum; settings: 100 nM scrambled RNA
[5] = system: Malachite green (MG) aptamer (RNA, aptamer) GGAUCCCGACUGGCGAGAGCCAGGUAACGAAUGGAUCC; assay: fluorescence light-up titration of MG; settings: 100 mM KCl, 5 mM MgCl2; 10 mM Na-HEPES, pH 7.4; 100 nM aptamer; no CDHP
[6] = system: Cortisol aptamer (DNA, aptamer) CTCTTGGGACGACGCCCGCATGTTCCATGGATAGTCTTGACTAGTCGTCCC; assay: aptasensor strand-displacement fluorescence (FAM/BHQ1); settings: aqueous buffer and 2 M CDHP; 3'-FAM signaling strand GTCGTCCCAAGAG hybridized; 1-10 ng/ml cortisol

Structure (SMILES): CN(C)c1ccc(C(=C2C=CC(=[N+](C)C)C=C2)c2ccc(N(C)C)cc2)cc1
binding [1]: no

Structure (SMILES): CCc1c(C)c2cc3nc(cc4nc(cc5c(CC)c(C)c(cc1[nH]2)n5C)C(C)=C4CCC(=O)O)C(CCC(=O)O)=C3C
Kd [2]: 520.6 nM

Structure (SMILES): Nc1ccn([C@@H]2O[C@H](COP(=O)(O)OP(=O)(O)OP(=O)(O)O)[C@@H](O)[C@H]2O)c(=O)n1
binding [3]: no

Structure (SMILES): Cc1ccc2c(c1)sc(-c1ccc(N(C)C)cc1)[n+]2C
Kd [2]: 1444.7 nM

The remaining lines, values ahead:

binding [4]: no | Kd [5]: 257.3 nM
Structure (SMILES): CN(C)c1ccc(C(=C2C=CC(=[N+](C)C)C=C2)c2ccccc2)cc1

binding [6]: yes
Structure (SMILES): C[C@]12CCC(=O)C=C1CC[C@@H]1[C@@H]2[C@@H](O)C[C@@]2(C)[C@H]1CC[C@]2(O)C(=O)CO

binding [3]: no
Structure (SMILES): O=c1ccn([C@@H]2O[C@H](COP(=O)(O)OP(=O)(O)OP(=O)(O)O)[C@@H](O)[C@H]2O)c(=O)[nH]1

binding [3]: no
Structure (SMILES): Nc1nc2c(ncn2[C@@H]2O[C@H](COP(=O)(O)OP(=O)(O)OP(=O)(O)O)[C@@H](O)[C@H]2O)c(=O)[nH]1

EC50 ([3]; antisense DNA AD-13 displaced, no CDHP): 384000 nM
Structure (SMILES): Nc1ncnc2c1ncn2[C@@H]1O[C@H](COP(=O)(O)OP(=O)(O)OP(=O)(O)O)[C@@H](O)[C@H]1O
